This passage reports IC50 results from US10787450B2 (BRISTOL-MYERS SQUIBB COMPANY, priority 2016, dated 2020).

As a reminder, the IC50 is the midpoint of a concentration-inhibition curve.

Structures are written as SMILES. Structures can show the parent of a compound that is named as a salt.

Sequence of ROCK2 (O75116 whole entry, species assumed): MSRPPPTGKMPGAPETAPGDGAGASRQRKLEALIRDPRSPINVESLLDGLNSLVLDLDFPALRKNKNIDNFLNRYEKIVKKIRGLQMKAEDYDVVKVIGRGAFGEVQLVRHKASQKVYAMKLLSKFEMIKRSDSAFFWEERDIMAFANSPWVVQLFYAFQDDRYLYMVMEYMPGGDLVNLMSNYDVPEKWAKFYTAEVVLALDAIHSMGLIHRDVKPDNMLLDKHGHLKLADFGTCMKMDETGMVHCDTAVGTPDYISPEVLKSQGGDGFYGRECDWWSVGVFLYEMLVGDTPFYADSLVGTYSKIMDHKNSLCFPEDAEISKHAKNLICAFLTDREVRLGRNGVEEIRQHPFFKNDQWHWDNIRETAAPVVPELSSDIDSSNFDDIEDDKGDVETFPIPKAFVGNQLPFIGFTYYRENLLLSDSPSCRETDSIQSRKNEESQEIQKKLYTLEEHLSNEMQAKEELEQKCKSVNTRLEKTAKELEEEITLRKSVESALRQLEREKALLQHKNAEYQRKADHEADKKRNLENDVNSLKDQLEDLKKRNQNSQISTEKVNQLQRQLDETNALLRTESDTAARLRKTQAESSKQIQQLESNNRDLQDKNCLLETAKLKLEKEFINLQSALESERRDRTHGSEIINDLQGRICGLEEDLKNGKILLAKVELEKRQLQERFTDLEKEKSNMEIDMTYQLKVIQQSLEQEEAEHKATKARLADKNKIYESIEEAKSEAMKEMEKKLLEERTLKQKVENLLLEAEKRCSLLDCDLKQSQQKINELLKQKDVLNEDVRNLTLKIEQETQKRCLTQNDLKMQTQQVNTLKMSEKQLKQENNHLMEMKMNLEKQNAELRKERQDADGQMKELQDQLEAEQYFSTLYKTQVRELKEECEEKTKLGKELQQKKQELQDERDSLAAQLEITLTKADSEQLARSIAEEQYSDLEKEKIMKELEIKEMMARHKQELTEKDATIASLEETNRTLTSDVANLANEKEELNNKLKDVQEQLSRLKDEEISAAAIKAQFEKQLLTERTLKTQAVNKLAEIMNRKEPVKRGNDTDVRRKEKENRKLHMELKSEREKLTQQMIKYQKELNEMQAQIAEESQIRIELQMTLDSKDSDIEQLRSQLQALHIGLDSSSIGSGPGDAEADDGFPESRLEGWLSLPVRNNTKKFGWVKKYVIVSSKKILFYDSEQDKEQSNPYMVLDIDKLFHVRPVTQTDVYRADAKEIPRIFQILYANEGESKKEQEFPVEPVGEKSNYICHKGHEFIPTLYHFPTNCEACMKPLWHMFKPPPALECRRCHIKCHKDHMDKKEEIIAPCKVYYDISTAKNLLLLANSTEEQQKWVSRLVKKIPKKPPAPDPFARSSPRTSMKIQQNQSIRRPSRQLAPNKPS

The assay concerns the target ROCK2 (Homo sapiens (Human), UniProt O75116). Put plainly: ROCK2 kinase inhibition assay (FITC peptide substrate, LABCHIP 3000 Reader). The assay is classed as biochemical. The conditions noted are these: 5 μM ATP, 1.5 μM peptide substrate. Summed up:
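Reaction in 20 mM HEPES pH 7.5, 20 mM MgCl2, 0.015% Brij-35, 4 mM DTT with 5 μM ATP and 1.5 μM FITC-AHA-AKRRRLSSLRA-OH peptide, started with Rho kinase, DMSO <2%. EDTA-stopped; phospho and non-phospho peptide separated by mobility shift. IC50 from dose-response curve fit.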
Molecule `COc1cccc(CN2C(=O)N(c3ccc(-c4cn[nH]c4)c(OC)n3)CC23CCN(C(=O)C(C)O)CC3)c1` (stereo not shown) [Example 221, 8-(2-hydroxypropanoyl)-3-(6-methoxy-5-(1H-pyrazol-4-yl)pyridin-2-yl)-1-(3-methoxybenzyl)-1,3,8-triazaspiro[4.5]decan-2-one] came in with an IC50 below 3 nM.

The molecule `CCc1nc(N2CC3(CCNCC3)N(Cc3cccc(OC)c3)C2=O)ccc1-c1cn[nH]c1` [Example 75, 3-(6-ethyl-5-(1H-pyrazol-4-yl)pyridin-2-yl)-1-(3-methoxybenzyl)-1,3,8-triazaspiro[4.5]decan-2-one, TFA] returned an IC50 below 3 nM.

Turning to `O=C1N(c2ccc(-c3cn[nH]c3)cc2)CC2(CCNCC2)N1Cc1ccccc1F` [Example 63, 3-(4-(1H-pyrazol-4-yl)phenyl)-1-(2-fluorobenzyl)-1,3,8-triazaspiro[4.5]decan-2-one], the IC50 lay in the range of 3 to 30 nM.

Molecule `COC(=O)N1CCC2(CC1)CN(c1ccc(-c3cn[nH]c3)c(OC)n1)C(=O)N2Cc1cccc(F)c1C` [Example 103, methyl 1-(3-fluoro-2-methylbenzyl)-3-(6-methoxy-5-(1H-pyrazol-4-yl)pyridin-2-yl)-2-oxo-1,3,8-triazaspiro[4.5]decane-8-carboxylate] had an IC50 below 3 nM.

Molecule `CCc1nc(N2CC3(CCN(C(=O)C4COC4)CC3)N(Cc3cccc(OC)c3)C2=O)ccc1-c1cn[nH]c1` [Example 185, 3-(6-ethyl-5-(1H-pyrazol-4-yl)pyridin-2-yl)-1-(3-methoxybenzyl)-8-(oxetane-3-carbonyl)-1,3,8-triazaspiro[4.5]decan-2-one] showed an IC50 below 3 nM.

For the molecule `CCOC(=O)N1CCC2(CC1)CN(c1ccc(-c3cn[nH]c3)c(CC)n1)C(=O)N2Cc1cc(F)cc(OC)c1` [Example 106, ethyl 3-(6-ethyl-5-(1H-pyrazol-4-yl)pyridin-2-yl)-1-(3-fluoro-5-methoxybenzyl)-2-oxo-1,3,8-triazaspiro[4.5]decane-8-carboxylate], the IC50 lay in the range of 3 to 30 nM.

In turn, `O=C1N(c2ccc(-c3cn[nH]c3)cc2)CC2(CC2)N1Cc1cccc(OCC2CC2)c1` [Example 7, 6-(4-(1H-pyrazol-4-yl)phenyl)-4-(3-(cycloproylmethoxy)benzyl)-4,6-diazaspiro[2.4]heptan-5-one] displayed an IC50 of 3 to 30 nM.

`O=C1N(c2ccc(-c3cn[nH]c3)cc2)CC2(CCOCC2)N1Cc1cccc(Cl)c1` [Example 15] came in with an IC50 of 250 to 3000 nM.

The molecule `O=C1N(c2ccc(-c3cn[nH]c3)cc2)CC2(CCOCC2)N1CC1CCCCC1` [Example 30, 3-(4-(1H-pyrazol-4-yl)phenyl)-1-(cyclohexylmethyl)-8-oxa-1,3-diazaspiro[4.5]decan-2-one] gave a 50% inhibitory concentration (IC50) of 30 to 250 nM.

In turn, `COc1cc(F)cc(CN2C(=O)N(c3ccc(-c4cn[nH]c4)cc3)CC23CCN(CCO)CC3)c1` [Example 144, 3-(4-(1H-pyrazol-4-yl)phenyl)-1-(3-fluoro-5-methoxybenzyl)-8-(2-hydroxyethyl)-1,3,8-triazaspiro[4.5]decan-2-one] yielded an IC50 below 3 nM.

Regarding `CCc1nc(N2CC3(CCN(C(=O)C(C)(C)CO)CC3)N(Cc3cccc(OC)c3)C2=O)ccc1-c1cn[nH]c1` [Example 204, 3-(6-ethyl-5-(1H-pyrazol-4-yl)pyridin-2-yl)-8-(3-hydroxy-2,2-dimethylpropanoyl)-1-(3-methoxybenzyl)-1,3,8-triazaspiro[4.5]decan-2-one], the IC50 was below 3 nM.

`O=C1N(c2ccc(-c3cn[nH]c3)cc2)CC2(CCNCC2)N1CC1CCOCC1` [Example 72, 3-(4-(1H-pyrazol-4-yl)phenyl)-1-((tetrahydro-2H-pyran-4-yl)methyl)-1,3,8-triazaspiro[4.5] decan-2-one] registered an IC50 of 250 to 3000 nM.

Consider `COC(=O)N1CCC2(CC1)CN(c1ccc(-c3cn[nH]c3)cc1)C(=O)N2Cc1cccc(F)c1C` [Example 108, methyl 3-(4-(1H-pyrazol-4-yl)phenyl)-1-(3-fluoro-2-methylbenzyl)-2-oxo-1,3,8-triazaspiro[4.5]decane-8-carboxylate], for which the IC50 is below 3 nM.

As to `O=C1N(c2ccc(-c3cn[nH]c3)cc2)CC2(CCOCC2)N1Cc1cccc(OCC2CC2)c1` [Example 11, 3-(4-(1H-pyrazol-4-yl)phenyl)-1-(3-(cyclopropylmethoxy)benzyl)-8-oxa-1,3-diazaspiro[4.5]decan-2-one], the IC50 was in the range of 3 to 30 nM.

`CCC(CC)CN1CCC2(CC1)CN(c1ccc(-c3cn[nH]c3)cc1)C(=O)N2Cc1cccc(OC)c1` [Example 123, 3-(4-(1H-pyrazol-4-yl)phenyl)-8-(2-ethylbutyl)-1-(3-methoxybenzyl)-1,3,8-triazaspiro[4.5]decan-2-one]: the IC50 is below 3 nM.

`COc1cccc(NC2C(=O)N(c3ccc(-c4cn[nH]c4)cc3)CC23CCN(CC(C)(C)O)CC3)c1` (stereo not shown) [Example 253, 2-(4-(1H-pyrazol-4-yl)phenyl)-8-(2-hydroxy-2-methylpropyl)-4-((3-methoxy-phenyl)amino)-2,8-diazaspiro [4.5]decan-3-one] registered an IC50 of 250 to 3000 nM.

In the case of `COc1cccc(CN2C(=O)N(c3ccc(-c4cn[nH]c4)cn3)CC23CCN(C(=O)C(F)F)CC3)c1` [Example 194, 3-(5-(1H-pyrazol-4-yl)pyridin-2-yl)-8-(2,2-difluoroacetyl)-1-(3-methoxybenzyl)-1,3,8-triazaspiro[4.5]decan-2-one], the IC50 is 3 to 30 nM.

Turning to `COc1cccc(CN2C(=O)N(c3ccc(-c4cn[nH]c4)cc3)CC23CCN(CCO)CC3)c1` [Example 141, 3-(4-(1H-pyrazol-4-yl)phenyl)-8-(2-hydroxyethyl)-1-(3-methoxybenzyl)-1,3,8-triazaspiro[4.5]decan-2-one], the IC50 is below 3 nM.

In turn, `COc1cccc(CN2C(=O)N(c3ccc(-c4cn[nH]c4)cc3)CC23CCN(C(=O)C(C)(C)O)CC3)c1` [Example 192, 3-(4-(1H-pyrazol-4-yl)phenyl)-8-(2-hydroxy-2-methylpropanoyl)-1-(3-methoxybenzyl)-1,3,8-triazaspiro[4.5]decan-2-one] yielded an IC50 below 3 nM.

In turn, `COc1cccc(CN2C(=O)N(c3ccc(-c4cn[nH]c4)c(OC)n3)CC23CCN(CCC(F)(F)F)CC3)c1` [Example 136, 3-(6-methoxy-5-(1H-pyrazol-4-yl)pyridin-2-yl)-1-(3-methoxybenzyl)-8-(3,3,3-trifluoropropyl)-1,3,8-triazaspiro[4.5]decan-2-one] gave an IC50 below 3 nM.

In turn, `COC(=O)N1CCC2(CC1)CN(c1ncc(-c3cn[nH]c3)c(OC)n1)C(=O)N2Cc1cccc(OC)c1` [Example 111, methyl 3-(4-methoxy-5-(1H-pyrazol-4-yl)pyrimidin-2-yl)-1-(3-methoxybenzyl)-2-oxo-1,3,8-triazaspiro[4.5]decane-8-carboxylate] came in with an IC50 of 3 to 30 nM.

Turning to `COc1nc(N2CC3(CCN(C(C)=O)CC3)N(Cc3cccc(F)c3C)C2=O)ccc1-c1cn[nH]c1` [Example 86, 8-acetyl-1-(3-fluoro-2-methylbenzyl)-3-(6-methoxy-5-(1H-pyrazol-4-yl)pyridin-2-yl)-1,3,8-triazaspiro[4.5]decan-2-one], the concentration for half-maximal inhibition (IC50) was below 3 nM.

`CCc1nc(N2CC3(CCN(CC(C)O)CC3)N(Cc3cccc(OC)c3)C2=O)ccc1-c1cn[nH]c1` (stereo not shown) [Example 151, 3-(6-ethyl-5-(1H-pyrazol-4-yl)pyridin-2-yl)-8-(2-hydroxypropyl)-1-(3-methoxybenzyl)-1,3,8-triazaspiro[4.5]decan-2-one]: the IC50 was below 3 nM.

`COc1cccc(CN2C(=O)N(c3ccc(-c4cn[nH]c4)cc3)CC23CCN(CC2CC2)CC3)c1` [Example 115, 3-(4-(1H-pyrazol-4-yl)phenyl)-8-(cyclopropylmethyl)-1-(3-methoxybenzyl)-1,3,8-triazaspiro[4.5]decan-2-one] showed an IC50 below 3 nM.

In the case of `COc1cccc(CN2C(=O)N(c3ccc(-c4cn[nH]c4)c(OC)n3)CC23CCN(C(=O)CO)CC3)c1` [Example 220, 8-(2-hydroxyacetyl)-3-(6-methoxy-5-(1H-pyrazol-4-yl)pyridin-2-yl)-1-(3-methoxybenzyl)-1,3,8-triazaspiro[4.5]decan-2-one], the IC50 was below 3 nM.

In turn, `O=C1N(c2ccc(-c3cn[nH]c3)cc2)CC2(CCOCC2)N1Cc1ccc(Cl)c(Cl)c1` [Example 19, 3-(4-(1H-pyrazol-4-yl)phenyl)-1-(3,4-dichlorobenzyl)-8-oxa-1,3-diazaspiro[4.5]decan-2-one] came in with an IC50 of 30 to 250 nM.

As to `O=C1N(c2ccc(-c3cn[nH]c3)cc2)CC2(CCOCC2)N1Cc1cccc(Cl)c1` [Example 16, 3-(4-(1H-pyrazol-4-yl)phenyl)-1-(3-chlorobenzyl)-8-oxa-1,3-diazaspiro[4.5]decan-2-one], the IC50 fell in the range of 3 to 30 nM.

`COc1cccc(NC2C(=O)N(c3ccc(-c4cn[nH]c4)cc3)CC23CN(CC(F)F)C3)c1` (stereo not shown) [Example 247, 6-(4-(1H-pyrazol-4-yl)phenyl)-2-(2,2-difluoroethyl)-8-((3-methoxy-phenyl)amino)-2,6-diazaspiro [3.4]octan-7-one] returned an IC50 of 250 to 3000 nM.

`CNC(=O)N1CCC2(CC1)CN(c1ccc(-c3cn[nH]c3)cc1)C(=O)N2Cc1cccc(OC)c1` [Example 91, 3-(4-(1H-pyrazol-4-yl)phenyl)-1-(3-methoxybenzyl)-N-methyl-2-oxo-1,3,8-triazaspiro[4.5]decane-8-carboxamide] registered an IC50 below 3 nM.

`O=C(NC1CCC1)c1cccc(CN2C(=O)N(c3ccc(-c4cn[nH]c4)cc3)CC23CCOCC3)c1` [Example 33, 3-((3-(4-(1H-pyrazol-4-yl)phenyl)-2-oxo-8-oxa-1,3-diazaspiro[4.5]decan-1-yl)methyl)-N-cyclobutylbenzamide] came in with a half-inhibitory concentration (IC50) below 3 nM.

Regarding `CCOC(=O)N1CCC2(CC1)CN(c1ccc(-c3cn[nH]c3)cc1)C(=O)N2Cc1cccc(OC)c1` [Example 96, ethyl 3-(4-(1H-pyrazol-4-yl)phenyl)-1-(3-methoxybenzyl)-2-oxo-1,3,8-triazaspiro[4.5]decane-8-carboxylate], the IC50 is below 3 nM.
